From ChEMBL document CHEMBL6134819, “Discovery of novel tranylcypromine-indazole-based derivatives as LSD1 inhibitors for acute myeloid leukemia treatment” (Eur J Med Chem, 2025)
Active and inactive are the calls of the source. No cut-off for these calls is given here.

What was measured:
[1] = target: T1, Amine oxidase [flavin-containing] B (Homo sapiens, UniProt P27338); assay: Inhibition of human N-terminal Flag-tagged MAOB extracted baculovirus infected in Sf9 cells measured after 0.5 hrs by MAO-Glo Assay; format: cell-based
T1 sequence (P27338 whole entry): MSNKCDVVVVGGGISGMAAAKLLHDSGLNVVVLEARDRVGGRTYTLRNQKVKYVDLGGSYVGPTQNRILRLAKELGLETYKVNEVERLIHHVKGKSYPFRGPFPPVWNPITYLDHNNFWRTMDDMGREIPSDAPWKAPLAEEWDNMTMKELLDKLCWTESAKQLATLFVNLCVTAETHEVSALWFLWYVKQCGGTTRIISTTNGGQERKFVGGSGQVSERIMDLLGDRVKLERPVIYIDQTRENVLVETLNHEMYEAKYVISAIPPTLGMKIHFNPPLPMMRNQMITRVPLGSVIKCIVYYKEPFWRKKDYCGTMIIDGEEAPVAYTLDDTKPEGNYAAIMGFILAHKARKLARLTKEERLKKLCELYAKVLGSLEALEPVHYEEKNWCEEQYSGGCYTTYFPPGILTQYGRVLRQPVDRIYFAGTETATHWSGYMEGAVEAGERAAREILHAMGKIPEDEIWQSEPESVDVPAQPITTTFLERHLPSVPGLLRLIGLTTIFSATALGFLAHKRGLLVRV

[2] = target: T2, Lysine-specific histone demethylase 1A (Homo sapiens, UniProt O60341); assay: Induction of thermal stabilization of LSD1 in human MV4-11 cells at 50 to 75 degree C by […] analysis; format: cell-based
[3] = target: T2, Lysine-specific histone demethylase 1A; assay: Inhibition of LSD1 in human MV4-11 cells assessed as increase in LSD1 protein level at 2 to 4 micromol/L measured after 48 hrs by Western blot analysis; format: cell-based; details: dose 2-4 µmol/L
[4] = target: T2, Lysine-specific histone demethylase 1A; assay: Inhibition of LSD1 in human MV4-11 cells assessed as increase in H3K4me2 expression level at 2 to 4 micromol/L measured after 48 hrs by Western blot analysis; format: cell-based; details: dose 2-4 µmol/L
[5] = test system: MV4-11; assay: Induction of apoptosis in human MV4-11 cells measured after 48 hrs by Annexin V-FITC/PI double staining based flow cytometry analysis; format: functional, cell-based; details: dose 2-4 µmol/L
[6] = test system: MV4-11; assay: Induction of apoptosis in human MV4-11 cells assessed as increase in early apoptosis measured after 48 hrs by Annexin V-FITC/PI double staining based flow cytometry analysis; format: functional, cell-based; details: dose 2-4 µmol/L
[7] = test system: MV4-11; assay: Induction of apoptosis in human MV4-11 cells assessed as increase in late apoptosis measured after 48 hrs by Annexin V-FITC/PI double staining based flow cytometry analysis; format: functional, cell-based; details: dose 2-4 µmol/L
[8] = test system: MV4-11; assay: Induction of apoptosis in human MV4-11 cells assessed as viable cells at 4 micromol/L measured after 48 hrs by Annexin V-FITC/PI double staining based flow cytometry analysis (reference value: 89.13%); format: functional; details: MV4-11, 48 h, dose 4 µmol/L, read-out: Activity
[9] = test system: MV4-11; assay: Induction of apoptosis in human MV4-11 cells assessed as early apoptotic cells at 3 micromol/L measured after 48 hrs by Annexin V-FITC/PI double staining based flow cytometry analysis (reference value: 2.01 %); format: functional; details: dose 3 µmol/L, at 3 µM
[10] = test system: MV4-11; assay: Induction of apoptosis in human MV4-11 cells assessed as early apoptotic cells at 4 micromol/L measured after 48 hrs by Annexin V-FITC/PI double staining based flow cytometry analysis (reference value: 2.01 %); format: functional; details: dose 4 µmol/L, at 4 µM
[11] = test system: MV4-11; assay: Induction of apoptosis in human MV4-11 cells assessed as late apoptotic cells at 3 micromol/L measured after 48 hrs by Annexin V-FITC/PI double staining based flow cytometry analysis (reference value: 7.70 %); format: functional; details: dose 3 µmol/L, at 3 µM
[12] = test system: MV4-11; assay: Induction of apoptosis in human MV4-11 cells assessed as necrotic cells at 3 micromol/L measured after 48 hrs by Annexin V-FITC/PI double staining based flow cytometry analysis (reference value: 1.16 %); format: functional; details: dose 3 µmol/L, at 3 µM
[13] = Metabolic stability in human liver microsomes assessed as half life measured up to 60 mins in presence of NADPH by LC-MS/MS analysis; format: ADME, Microsome
[14] = Metabolic stability in human liver microsomes assessed as intrinsic clearance measured up to 60 mins in presence of NADPH by LC-MS/MS analysis; format: ADME, Microsome; details: read-out: CLH
[15] = Solubility in PBS buffer at pH 7.4 measured after 2 hrs by LC-MS/MS analysis; format: physicochemical
[16] = AUC (0 to infinity) in male Sprague-Dawley rat at 1 mg/kg, iv measured up to 24 hrs by LC-MS/MS analysis; format: ADME, organism-based; details: in vivo
[17] = Half life in male Sprague-Dawley rat at 1 mg/kg, iv measured up to 24 hrs by LC-MS/MS analysis; format: ADME, organism-based; details: in vivo
[18] = Clearance in male Sprague-Dawley rat at 1 mg/kg, iv measured up to 24 hrs by LC-MS/MS analysis; format: ADME, organism-based; details: in vivo

- IC50 [1]: 2.65 µM
- Activity [2]: Active
- inhibition [3]: Active
- inhibition [4]: Active
- half-life [13]: 11.6 min
- CLint scaled [14]: 108 mL/min/kg
- solubility at 2 h [15]: 1.43 µM
- AUC(0-inf) [16]: 483 ng·h/mL
- half-life [17]: 41.4 min
- clearance [18]: 35.3 mL/min/kg
Structure (SMILES): Cl.O=S(=O)(c1ccccc1)n1ncc2cc(-n3cc(CN[C@@H]4C[C@H]4c4ccc(F)c(F)c4)nn3)ccc21
- Activity [5]: Dose-dependent-effect
- Activity [6]: Dose-dependent-effect
- Activity [7]: Dose-dependent-effect
- viability at 4 µM [8]: 77.4%
- Activity [9]: 3.18%
- Activity [10]: 4.28%
- Activity [11]: 13.22%
- Activity [12]: 2.8%
